The text below walks through data of a melting point compilation (Tetko et al.; mined from patent text by program, amines drawn as free bases though some values may be those of a salt).

Where only a bound is given, the exact number is not on record here.

Usually melting point stands for the temperature of the solid-liquid transition. `CCc1cc(C(=O)c2ccccc2Cl)c(-n2c(C)nnc2CNC(=O)Cc2ccccc2)s1` displayed a melting point of 153 to 155 °C. In the case of `C(#Cc1cc2ccccc2s1)c1cccs1` it was 114 to 116 °C; in that of `CC(C)(C)OC(=O)NC(Cc1ccccc1)C(O)CNCC(O)C(Cc1ccc(OCCN2CCOCC2=O)cc1)NC(=O)OC(C)(C)C` (stereo not drawn), 108 to 111 °C; in that of `O=c1[nH]c(=S)[nH]cc1Cc1cccc(Cl)c1`, 192 to 195 °C. With `CCCCOc1cc2ncnc(N3CCc4ccc(Cl)cc43)c2cc1OC` the figure was 126 to 132 °C; with `CCOC(=O)C1=C(N)N=C(OCC)C(C(=O)OCC)C1c1ccc(C)cc1` (stereo not drawn), 119 °C; with `CC(C)NC(=O)n1nc(Oc2c(Cl)cc(C(F)(F)F)cc2Cl)cc1C(Cl)(Cl)Cl`, 105 to 106 °C. With `O=S(=O)(Cl)c1c(Cl)sc(Cl)c1Cl` the figure was 55 °C. In the case of `Cc1oc(-c2ccccc2)nc1COc1ccc(Cn2cc(/C=C/C(=O)O)cn2)cc1`, the melting point fell in the range of 186 to 187 °C.

In turn, `CC(C)(C)OC(=O)N1CCN(CCOc2cc(-c3ccccc3)on2)CC1` displayed a melting point of 110 to 111 °C.

Consider `O=C1c2ccccc2C(=O)N1CCOc1ccncc1`, for which the melting point fell in the range of 157 to 158 °C. In the case of `N#Cc1ccc(-c2cn(-c3ccc(C#N)cc3)c(SCc3cccnc3)n2)cc1` it was 218 to 225 °C; in that of `CCCc1nc2c(N)nc3cc(OCCN4CCCS4(=O)=O)ccc3c2s1`, 127 to 130 °C. With `CC(C)c1cc2c(c3c1C(=O)NS3(=O)=O)OCO2` the figure was 226 to 228 °C; with `O=C(NCc1ccc(Cl)cc1)c1cnc2cc(C(F)(F)F)ccc2c1O`, 189 to 190 °C.

For `Nc1cc(Sc2cccc3cnccc23)c(Cl)cc1[N+](=O)[O-]`, the melting point is > 270 °C. In the case of `Cc1cc(-c2ccc(C(F)(F)F)cc2)cc(-c2ccnc(-c3cccc(S(N)(=O)=O)c3)n2)n1` it was > 250 °C. The molecule `Cc1ccc(S(=O)(=O)OCC2Cc3cccc(-c4cccc(Cl)c4)c3O2)cc1` (stereo not drawn) gave a melting point of 101 to 103 °C. In the case of `CCCOc1ccc(S(=O)(=O)N2CCC(C(=O)OCC)CC2)cc1-c1nc2cc(Cl)c([N+](=O)[O-])cc2c(=O)[nH]1` it was 203 to 204 °C. With `Oc1ccc(-c2nnc(-c3ccccc3)o2)cc1` the figure was 256 °C. Regarding `Cc1c(CC=CNC(=O)Nc2ccccc2)[nH]c(=O)c2c1ccc1nc(Nc3c(Cl)cccc3Cl)n(C)c12`, the melting point is > 290 °C. With `N#Cc1ccccc1OCCCCCCCC(=O)O` the figure was 83 to 85 °C.

Take `Oc1ccc2c(c1)CC(NCC(O)c1cccc(Cl)c1)CC2` (stereo not drawn): the melting point turned out to be 175 °C. In the case of `CC(C)NC(=O)Nc1nc(Cc2c(Cl)cccc2Cl)nc(Nc2ccc(C#N)cc2)n1` it was 267 to 268 °C. In the case of `CC(C)(C)c1cc(OC[Si](C)(C)Cc2ccccc2)cc(C(C)(C)C)c1O` it was 76 to 77 °C; in that of `OC(c1cccs1)C1CCN(CCc2ccccc2)CC1` (stereo not drawn), 123 to 125 °C.

In turn, `Cc1ccc(C2=Cc3cc(C(=O)N[C@H]4CC[C@H](CN(C)C5CCOCC5)CC4)ccc3OC2)cc1` had a melting point of 205 to 207 °C. In the case of `CN(C(=O)/C=C/c1ccco1)c1ccc(S(=O)(=O)NC2CCCCCC2)cc1` it was 152 to 155 °C; in that of `Nc1ccc(OCCCCCOc2ccc(N)cc2)cc1`, 78 to 79 °C; in that of `CC(C)(C)OC(=O)c1cc2cc(Cl)ccc2[nH]1`, 140 to 142 °C. With `O=C(O)c1oc(=O)c2cc(Cl)c(Cl)cc2c1-c1ccccc1` the figure was 243 to 244 °C; with `N#Cc1c(N)cccc1Sc1cccc(N)c1`, 99 to 100 °C; with `O=C(CO)NCc1ccc2ccn(C3CCN(CCc4ccccc4F)CC3)c2c1`, 151 to 152 °C.

Turning to `O=C(Nc1ccc(C(=O)N2C[C@H]3C[C@H](F)CN3c3ccccc32)cc1)c1ccccc1-c1ccccc1`, the melting point is 136 to 145 °C. For the molecule `C#CCN1C(=O)COc2cc(-c3nn(C)c(C(F)(F)F)c3Cl)c(F)cc21`, the melting point amounted to 184 °C. In the case of `Nc1ccc(C2=NCCO2)cc1` it was 163 to 165 °C; in that of `CCCn1cc(Cc2ccc(C(=O)NS(=O)(=O)c3ccccc3C)cc2OC)c2cc(C=CCC(=O)N(C)C)ccc21`, 119 to 121 °C; in that of `O=C1Cc2cccc(Oc3ccccc3O)c2O1`, 150 to 152 °C. On to `O=S(=O)(NCCCCOc1ccc(-n2ccnc2)cc1)c1ccc(Br)cc1`, for which the melting point lay in the range of 134 to 136 °C. In the case of `CC1(C(N)=O)CCC=[N+]1[O-]` (stereo not drawn) it was 134 to 135 °C; in that of `Cn1c(CC(=O)O)ccc1C(=O)c1ccc(Cl)cc1Cl`, 165 to 166 °C. On to `Cc1onc(NS(=O)(=O)c2cc(-c3ncccn3)ccc2-c2ccccc2CN(C)C(=O)CC(C)(C)C)c1C`, for which the melting point was in the range of 120 to 128 °C. In turn, `CCOC(=O)C(Cc1ccc(OCc2ccccc2)cc1)Oc1ccc(OC(F)(F)F)cc1` (stereo not drawn) returned a melting point of 34 to 36 °C. Molecule `CCCOc1ccccc1-c1nc2nc(NCCCS(C)(=O)=O)ncc2c(=O)[nH]1` showed a melting point of 222 to 223 °C.

`CCc1nc(N)nc(N)c1-c1ccc(NCc2ccccc2)c([N+](=O)[O-])c1` registered a melting point of 253 to 255 °C. Regarding `CCOC(=O)c1cn(-c2nncs2)c2cc(F)c(F)cc2c1=O`, the melting point lay in the range of 235 to 238 °C. In the case of `C=CCOc1nc(N(CC=C)CC=C)nc(N2CCc3ccccc3CC2)c1C#N` it was 126 to 130 °C.

The molecule `NC(=O)c1c(F)ccc([N+](=O)[O-])c1F` returned a melting point of 134 to 135 °C. In the case of `Cc1c(OCc2ccccn2)nn2c(-c3ccccc3)nnc2c1C` it was 185 °C. With `CC(N)CC(=O)Nc1ccc(Nc2ccccc2)cc1` (stereo not drawn) the figure was 130 to 132 °C.

Molecule `COc1ccc(-c2nc(-c3ccc(F)cc3)c(-c3ccc(S(C)(=O)=O)cc3)s2)cc1` yielded a melting point of 187 to 189 °C.

On to `Cc1cccc(-n2ncc(C)c2-c2cc3cnccc3s2)n1`, for which the melting point lay within 155 to 156 °C. In the case of `O=C(Nc1ccc(N2CCOCC2)c(C(F)(F)F)c1)c1ccc(F)c(OCc2cncc3ccccc23)c1` it was 175 to 180 °C; in that of `COc1ccc(CN2CCCc3cc(OCc4ccccc4)c(OC)cc3C2)cc1`, 87 to 88 °C. With `CC(=O)OCC1OC(n2cc(Cc3ccc(C4CC4)cc3)c3c(F)cccc32)C(OC(C)=O)C(OC(C)=O)C1OC(C)=O` (stereo not drawn) the figure was 190 to 192 °C.

Take `COC(=O)Nc1ccc(OCc2nc3cc(F)ccc3s2)cc1C`: the melting point was 165 to 168 °C. On to `Cc1cc(-c2c(C)ccc(C(=S)OC(C)(C)C)c2C)on1`, for which the melting point lay in the range of 102 to 103 °C. In the case of `CC(CCCc1ccccc1)(C(=O)O)c1ccc(CCCNC(=O)c2ccc(-c3ccccn3)cc2)cc1` (stereo not drawn) it was 118 to 119 °C; in that of `CC(=O)Nc1ccc(C(C)(C)C)cc1F`, 164 to 165 °C; in that of `CCCc1cc(C)c2oc(Cc3ccc(OC)cc3)c(C)c2c1O`, 102 to 104 °C. With `Cc1nc2cccc3n(CCCCNS(=O)(=O)C(F)(F)F)c(=O)c1n23` the figure was 195 to 196 °C; with `CCCn1cc(S(C)=O)c(=O)c2ccccc21` (stereo not drawn), 126 to 128 °C. In the case of `CC(=O)CC(=O)OCCCOC(=O)c1ccc(OCCn2ccnc2)cc1` it was 49.5 to 51.5 °C; in that of `Cc1cc2ccc(=O)oc2cc1O`, 253 to 254 °C. `O=C1Nc2ccccc2C1C(=O)c1ccoc1` (stereo not drawn) registered a melting point of 185 to 186 °C. With `COc1cc(C(=O)c2nc(C(N)=O)c3ccccn23)ccc1N` the figure was 241 °C; with `N=C(N)c1ccc2[nH]cc(CCN3C(=O)c4ccccc4C3=O)c2c1`, 206 to 209 °C. Turning to `COc1cc(OC)c(-c2c(C)noc2C)cc1C=CC(=O)c1ccc(C(=O)O)cc1`, the melting point was > 260 °C. In turn, `N#Cc1cc(Br)cc(C(F)(F)F)n1` yielded a melting point of 88.5 °C.

Regarding `O=C(O)C1=c2ccccc2=CC=C2CC=CC=C21`, the melting point was determined as 129 °C. With `O=C(CCl)Nc1ccc2c(c1NC(=O)CCl)C(=O)c1ccccc1C2=O` the figure was 254 to 255 °C; with `CCCCCCCCCCCCCCCCCCOCC(O)Cn1ccc(N)nc1=O` (stereo not drawn), 153 to 154 °C; with `CC(C)(C)OC(=O)N1CCCN(c2ncnc3ccccc23)CC1`, 55 to 59 °C.

For `NC(=O)C(=O)Nc1nc(-c2cc3ccccc3oc2=O)cs1`, the melting point was in the range of 297 to 300 °C. In the case of `CCN(CC)C(=O)c1ccc(C)c(-c2nc(NCCNC(C)C)nc3c2CNC(=O)N3c2c(F)cccc2F)c1` it was 89 to 91 °C. `Cc1cc2c(cc1Cl)C(NCCC1CCN(C(=O)OC(C)(C)C)CC1)(c1ccccc1Cl)C(=O)N2` (stereo not drawn) showed a melting point of 245 to 248 °C. In the case of `CCC(Cl)C(=O)Nc1c(C(=O)CC(=O)Nc2ccccn2)cccc1C(F)(F)F` (stereo not drawn) it was 137 °C. In the case of `CSc1c(C(=O)O)ccc(Br)c1Cl` it was 128 to 130 °C; in that of `Clc1ccc(-c2c(Cl)nc(Cl)nc2-c2ccccc2)cc1`, 123 to 125 °C; in that of `COC(=O)CCCc1nnc(-c2nccs2)c2cc(OC)ccc12`, 136 to 137 °C. Turning to `CNC1C(O)CC2C3CCC4CC(=O)CCC4(C)C3CCC21C` (stereo not drawn), the melting point was 167 to 174 °C. With `Cc1nsc(NC(=O)Cc2ccc(O)c(N)c2)c1Cl` the figure was 239 to 243 °C. With `COCC(=O)N[C@@H]1CCOc2ccccc21` the figure was 109 to 112 °C; with `O=C(Nc1noc2ccccc12)N1CCN(c2nc(-c3ccccc3)no2)CC1`, 215 to 216 °C. With `CNc1nc(-c2cccc(OCc3ccccc3)c2)c2cc(OC)c(OC)cc2n1` the figure was 116 to 118 °C; with `COc1cc(C(=O)O)ccc1S(=O)(=O)n1c(=O)n(C2CCCCC2)c2cc(OC3CCCC3)ccc21`, 245 °C; with `Cc1ccc(C)n1-c1ccccc1OCC(O)CNC(C)C` (stereo not drawn), 73 to 75 °C. Take `CC(=N)Nc1ccc2nc(-c3ccccc3)ncc2c1`: the melting point was 162 to 164 °C.
